Structures can show the parent of a compound that is named as a salt. Where two headings read alike, the source gives them in different places.
Target: T1, HCV polymerase (Hepatitis C virus genotype 1b, UniProt P26663)
T1 construct: a region encoding NS5B (591 amino acids; J Virol 1991 Mar, 65(3), 1105-13) was amplified by PCR; 6 His (N); made in house; host or cells: Escherichia coli
Assay: biochemical

[1] = read-out: HCV polymerase inhibitory activity IC50

T1 sequence (P26663 2420-3010): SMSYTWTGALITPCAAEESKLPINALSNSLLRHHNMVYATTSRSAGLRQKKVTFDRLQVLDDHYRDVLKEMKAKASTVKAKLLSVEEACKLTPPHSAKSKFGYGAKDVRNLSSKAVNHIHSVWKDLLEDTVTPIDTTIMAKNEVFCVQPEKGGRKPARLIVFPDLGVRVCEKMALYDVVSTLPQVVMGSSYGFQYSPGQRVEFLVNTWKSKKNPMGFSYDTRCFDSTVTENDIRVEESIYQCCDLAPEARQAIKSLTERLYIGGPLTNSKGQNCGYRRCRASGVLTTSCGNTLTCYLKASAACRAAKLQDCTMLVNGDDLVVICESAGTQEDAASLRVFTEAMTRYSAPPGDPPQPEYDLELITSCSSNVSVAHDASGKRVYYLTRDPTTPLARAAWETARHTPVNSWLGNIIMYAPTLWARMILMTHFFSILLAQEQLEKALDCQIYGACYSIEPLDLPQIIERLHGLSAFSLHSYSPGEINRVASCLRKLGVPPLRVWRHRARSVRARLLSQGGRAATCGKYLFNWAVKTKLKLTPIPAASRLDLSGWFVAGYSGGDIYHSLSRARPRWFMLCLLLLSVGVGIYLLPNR

| Compound | IC50 [1] [µM] | IC50 (HCV polymerase inhibitory activity IC50) [µM] |
| --- | --- | --- |
| COc1ccc(-c2ccc(Cl)cc2)c(COc2ccc(-c3nc4cc(C(=O)O)ccc4n3C3CCCCC3)c(F)c2)c1 [Example 468, 2-[4-{2-(4-chlorophenyl)-5-methoxybenzyloxy}-2-fluorophenyl]-1-cyclohexylbenzimidazole-5-carboxylic acid] | 0.028 | – |
| O=C(O)c1ccc2c(c1)nc(-c1ccc(OC[C@@H]3CCCN3S(=O)(=O)c3ccccc3)cc1)n2C1CCCCC1 [Example 193, 2-{4-[{(2S)-1-benzenesulfonyl-2-pyrrolidinyl}methoxy]phenyl}-1-cyclohexylbenzimidazole-5-carboxylic acid] | 0.13 | – |
| CCCOc1cccc(Oc2ccc(-c3nc4cc(C(=O)O)ccc4n3C3CCCCC3)cc2)c1 [Example 111, 1-cyclohexyl-2-[4-(3-propoxyphenoxy)phenyl]benzimidazole-5-carboxylic acid] | 0.14 | – |
| O=C(O)c1ccc2c(c1)nc(-c1ccc(OCc3ccccc3-c3ccccc3)cc1)n2C1CCCCC1 [Example 88, 2-[4-(2-biphenylylmethoxy)phenyl]-1-cyclohexylbenzimidazole-5-carboxylic acid] | 0.092 | – |
| CN(C)C(=O)c1ccc(-c2ccc(Cl)cc2)c(COc2ccc(-c3nc4cc(C(=O)O)ccc4n3C3CCCCC3)cc2)c1 [Example 265, 2-{4-[2-(4-chlorophenyl)-5-dimethylcarbamoylbenzyloxy]phenyl}-1-cyclohexylbenzimidazole-5-carboxylic acid hydrochloride] | – | 0.014 |
| CC(=O)Nc1ccc(N2CCC[C@H]2COc2ccc(-c3nc4cc(C(=O)O)ccc4n3C3CCCCC3)cc2)cc1 [Example 205, 2-{4-[{(2S)-1-(4-acetylaminophenyl)-2-pyrrolidinyl}methoxy]-phenyl}-1-cyclohexylbenzimidazole-5-carboxylic acid] | 0.077 | – |
| CS(=O)(=O)Nc1ccc(-c2ccc(Cl)cc2)c(COc2ccc(-c3nc4cc(C(=O)O)ccc4n3C3CCCCC3)c(F)c2)c1 [Example 455, 2-[4-{2-(4-chlorophenyl)-5-(methylsulfonylamino)benzyloxy}-2-fluorophenyl]-1-cyclohexylbenzimidazole-5-carboxylic acid hydrochloride] | 0.015 | – |
| O=C(O)c1ccc2c(c1)nc(-c1ccc(OCc3cc(N4CCNC4=O)ccc3-c3ccc(Cl)cc3)cc1F)n2C1CCCCC1 [Example 424, 2-{4-[2-(4-chlorophenyl)-5-(2-oxoimidazolidin-1-yl)benzyloxy]-2-fluorophenyl}-1-cyclohexylbenzimidazole-5-carboxylic acid hydrochloride] | 0.02 | – |
| O=C(O)c1ccc2c(c1)nc(-c1ccc(OCc3cc(C4=NOS(=O)N4)ccc3-c3ccc(Cl)cc3)cc1F)n2C1CCCCC1 (stereo not shown) [Example 375, 2-{4-[2-(4-chlorophenyl)-5-(2-oxo-3H-1,2,3,5-oxathiadiazol-4-yl)benzyloxy]-2-fluorophenyl}-1-cyclohexylbenzimidazole-5carboxylic acid hydrochloride] | 0.012 | – |
| O=C(O)c1ccc2c(c1)nc(-c1ccc(Oc3cc(OCc4ccncc4)ncn3)cc1)n2C1CCCCC1 [Example 239, 1-cyclohexyl-2-{4-[4-(4-pyridylmethoxy)-6-pyrimidinyloxy]phenyl}-benzimidazole-5-carboxylic acid] | 0.17 | – |
| O=C(O)c1ccc2c(c1)nc(-c1ccc(OCc3cc(C(=O)N4CCCC4)ccc3-c3ccc(Cl)cc3)cc1F)n2N1CCCCC1 [Example 421, 2-{4-[2-(4-chlorophenyl)-5-(pyrrolidin-1-ylcarbonyl)benzyloxy]-2-fluorophenyl}-1-piperidinobenzimidazole-5-carboxylic acid] | 0.017 | – |
| O=C(O)CNC(=O)c1ccc(-c2ccc(Cl)cc2)c(COc2ccc(-c3nc4cc(C(=O)O)ccc4n3C3CCCCC3)c(F)c2)c1 [Example 292, 2-{4-[3-(carboxymethylcarbamoyl)-6-(4-chlorophenyl)benzyloxy]-2-fluorophenyl}-1-cyclohexylbenzimidazole-5-carboxylic acid] | 0.015 | – |
| O=C(O)c1ccc2c(c1)nc(-c1ccc(Oc3cccc(OCc4cccc(Cl)c4)c3)cc1)n2C1CCCCC1 [Example 200, 2-{4-[3-(3-chlorobenzyloxy)phenoxy]phenyl}-1-cyclohexylbenzimidazole-5-carboxylic acid] | 0.1 | – |
| CN(C)C(=O)c1cc(OCc2ccncc2)cc(Oc2ccc(-c3nc4cc(C(=O)O)ccc4n3C3CCCCC3)cc2)c1 [Example 259, 1-cyclohexyl-2-{4-[3-dimethylcarbamoyl-5-(4-pyridylmethoxy)-phenoxy]phenyl}benzimidazole-5-carboxylic acid dihydrochloride] | 0.1 | – |
| O=C(O)c1ccc2c(c1)nc(-c1ccc(OCc3cc(Cl)ccc3-c3ccncc3)cc1)n2C1CCCCC1 [Example 315, 2-{4-[5-chloro-2-(4-pyridyl)benzyloxy]phenyl}-1-cyclohexylbenzimidazole-5-carboxylic acid hydrochloride] | 0.028 | – |
| O=C(O)c1ccc2c(c1)nc(-c1ccc(OCc3cc(Cl)ccc3-c3ccc(CO)cc3)cc1)n2C1CCCCC1 [Example 294, 2-{4-[3-chloro-6-(4-hydroxymethylphenyl)benzyloxy]phenyl}-1-cyclohexylbenzimidazole-5-carboxylic acid] | 0.032 | – |

| Compound | IC50 [1] [µM] | IC50 (HCV polymerase inhibitory activity IC50) [µM] |
| --- | --- | --- |
| O=C(O)c1ccc2c(c1)nc(-c1ccc(OC(c3ccc(F)cc3)c3ccc(F)cc3)cc1)n2C1CCCCC1 [Example 134, 2-{4-[bis(4-fluorophenyl)methoxy]phenyl}-1-cyclohexylbenzimidazole-5-carboxylic acid] | 0.071 | – |
| CN(C)c1ccc(-c2ccc(Cl)cc2)c(COc2ccc(-c3nc4cc(C(=O)O)ccc4n3C3CCCCC3)cc2)c1 [Example 282, 2-{4-[2-(4-chlorophenyl)-5-dimethylaminobenzyloxy]phenyl}-1-cyclohexylbenzimidazole-5-carboxylic acid] | 0.019 | – |
| CC(C)(C)NS(=O)(=O)c1ccc(-c2ccc(Cl)cc2)c(COc2ccc(-c3nc4cc(C(=O)O)ccc4n3C3CCCCC3)cc2)c1 [Example 249, 2-{4-[3-(tert-butylsulfamoyl)-6-(4-chlorophenyl)benzyloxy]-phenyl}-1-cyclohexylbenzimidazole-5-carboxylic acid] | 0.022 | – |
| CSc1ccc(-c2ccc(Cl)cc2)c(COc2ccc(-c3nc4cc(C(=O)O)ccc4n3C3CCCCC3)cc2)c1 [Example 297, 2-{4-[2-(4-chlorophenyl)-5-methylthiobenzyloxy]phenyl}-1-cyclohexylbenzimidazole-5-carboxylic acid] | 0.022 | – |
| O=C(O)c1ccc2c(c1)nc(-c1ccc(Oc3cccc(-c4ccc(Cl)cc4)c3)cc1)n2C1CCCCC1 [Example 215, 2-{4-[3-(4-chlorophenyl)phenoxy]phenyl}-1-cyclohexylbenzimidazole-5-carboxylic acid] | 0.078 | – |
| O=C(O)c1ccc2c(c1)nc(-c1ccc(OCc3cc(N4CCCC4=O)c(F)cc3-c3ccc(Cl)cc3)cc1F)n2C1CCCCC1 [Example 454, 2-[4-{2-(4-chlorophenyl)-4-fluoro-5-(2-oxopyrrolidin-1-yl)benzyloxy}-2-fluorophenyl]-1-cyclohexylbenzimidazole-5-carboxylic acid hydrochloride] | 0.013 | – |
| CCN(c1ccc(-c2ccc(Cl)cc2)c(COc2ccc(-c3nc4cc(C(=O)O)ccc4n3C3CCCCC3)c(F)c2)c1)S(=O)(=O)CC [Example 465, 2-[4-{2-(4-chlorophenyl)-5-[N-ethyl-N-(ethylsulfonyl)amino]-benzyloxy}-2-fluorophenyl]-1-cyclohexylbenzimidazole-5-carboxylic acid hydrochloride] | 0.033 | – |
| O=C(O)c1ccc2c(c1)nc(-c1ccc(OC[C@@H]3CCCN3Cc3ccccc3)cc1)n2C1CCCCC1 [Example 165, 2-{4-[{(2S)-1-benzyl-2-pyrrolidinyl}methoxy]phenyl}-1-cyclohexyl-benzimidazole-5-carboxylic acid hydrochloride] | 0.58 | – |
| CCNC(=O)c1ccc(-c2ccc(Cl)cc2)c(COc2ccc(-c3nc4cc(C(=O)O)ccc4n3C3CCCCC3)c(F)c2)c1 [Example 390, 2-{4-[2-(4-chlorophenyl)-5-(ethylcarbamoyl)benzyloxy]-2-fluorophenyl}-1-cyclohexylbenzimidazole-5-carboxylic acid hydrochloride] | 0.014 | – |
| O=C(O)c1ccc2c(c1)nc(-c1ccc(Oc3ccccc3OCc3ccccc3)cc1)n2C1CCCCC1 [Example 104, 2-[4-(2-benzyloxyphenoxy)phenyl]-1-cyclohexylbenzimidazole-5-carboxylic acid] | 0.073 | – |
| CS(=O)(=O)c1ccc(-c2ccc(Cl)cc2)c(COc2ccc(-c3nc4cc(C(=O)O)ccc4n3C3CCCCC3)cc2)c1 [Example 280, 2-{4-[2-(4-chlorophenyl)-5-methanesulfonylbenzyloxy]phenyl}-1-cyclohexylbenzimidazole-5-carboxylic acid] | 0.016 | – |
| O=C(O)c1ccc2c(c1)nc(-c1ccc(OCc3cc(C(=O)NCCO)ccc3-c3ccc(Cl)cc3)cc1F)n2C1CCCCC1 [Example 288, 2-{4-[2-(4-chlorophenyl)-5-(2-hydroxyethyl)carbamoylbenzyloxy]-2-fluorophenyl}-1-cyclohexylbenzimidazole-5-carboxylic acid] | 0.013 | – |
| O=C(O)c1ccc2c(c1)nc(-c1ccc(OC(c3ccc(F)cc3)c3ccc(F)cc3)cc1F)n2C1CCCCC1 [Example 148, 2-{4-[bis(4-fluorophenyl)methoxy]-2-fluorophenyl}-1-cyclohexylbenzimidazole-5-carboxylic acid] | 0.038 | – |
| O=C(O)COc1ccccc1Oc1ccc(-c2nc3cc(C(=O)O)ccc3n2C2CCCCC2)cc1 [Example 140, 2-[4-(2-carboxymethyloxyphenoxy)phenyl]-1-cyclohexylbenzimidazole-5-carboxylic acid] | 0.11 | – |
| O=C(O)c1ccc2c(c1)nc(-c1ccc(OCc3cc(OCCO)ccc3-c3ccc(Cl)cc3)cc1)n2C1CCCCC1 [Example 335, 2-{4-[2-(4-chlorophenyl)-5-(2-hydroxyethoxy)benzyloxy]phenyl}-1-cyclohexylbenzimidazole-5-carboxylic acid hydrochloride] | 0.013 | – |

— patent US20040082635A1, “Fused cyclic compounds and medicinal use thereof” (priority 2001, published 2004)
